Patent US20040171795A1, “Novel peptides” (priority 2000, published 2004)
Values belong to the substance of their own block, whether it stands above or below them.

What was measured:
[1] = Measurement of turbidity in BSA; format: physicochemical; details: BSA 1%, peptide 50 μM, absorbance at 600 nm
Procedure: The solutions were evaluated for their absorbance at a wavelength of 600 nm by using a spectrophotometer (DU640, manufactured by Beckman).

[2] = Affinity for phosphatidyl serine (EIA, inhibition of human Factor VIII binding); details: for IC50: class of IC50 for inhibiting human Factor VIII binding, 5% BSA
Procedure: The specific affinity of the peptide for phosphatidyl serine was evaluated by measuring activity of the peptide for inhibiting the binding of the human Factor VIII to phosphatidyl serine by using human Factor VIII which is known to bind to phosphatidyl serine but not to phosphatidyl choline in the presence of serum albumin. To be more specific, 100 μL of ethanol solution containing 10 μg/mL of phospholipids at a phosphatidyl serine (manufactured by SIGMA): phosphatidyl choline (manufactured by SIGMA) ratio of 3:7 was added to the wells of a 96 well plate (Immulon I, manufactured by Dynatech), and exsiccated by using a centrifugal evaporator (EC-95C, manufactured by Sakuma Seisakusho) at 40° C. for 40 minutes. 200 μL each of TBS (10 mM Tris-HCl (pH 7.4) containing 1% bovine serum albumin (BSA Fraction V, hereinafter referred to as BSA, manufactured by Seikagaku Corporation) and 0.9% (W/V) NaCl solution were added to each well, and the wells were blocked by allowing the plate to stand at 37° C. for 2.5 hours. After washing the plate with water, 100 μL of TBS solution supplemented with 5% BSA mixed with human Factor VIII (manufactured by American Diagnostica) at a final concentration 1 μg/mL and the peptide of predetermined dose prepared in Example 1 was added to each well, and the reaction was allowed to take place at 4° C. for 24 hours.
After the completion of the reaction, the human Factor VIII that became bound to the phosphatidyl serine was measured by enzyme immunoassay (EIA) in accordance with the general procedure described in a book (“Enzyme Immunoassay (3rd ed.)”, Eiji Ishikawa et al., Igaku-Shoin, 1987). To be more specific, the measurement was conducted by using anti-human Factor VIII mouse monoclonal antibody (ESH8, manufactured by American Diagnostica) for the primary antibody, horseradish peroxidase-labeled anti-mouse IgG antibody (P0260, manufactured by Daco) for the secondary antibody, and tetramethylbenzidine for the chromogenic substrate, and measuring the absorption at a wavelength of 450 nm by using a reference wavelength of 630 nm on a spectrophotometer (NJ-2100, manufactured by Intermed).
Intensity of the affinity of the peptide for the phosphatidyl serine was evaluated by using the value obtained by subtracting the absorption of the well having no human Factor VIII added thereto from the absorption of the well having only the human Factor VIII added thereto as the control value (100%), and designating the peptide concentration at which the value 0.5 was obtained when the value obtained by subtracting the absorption of the well having only the peptide added thereto from the absorption of the well having a mixture of the human Factor VIII and the peptide added thereto were divided by the control value as the IC50 value, and evaluating the intensity to be ++ when the IC50 value was up to 1 μM, and +when the intensity was more than 1 μM but not more than 10 μM. It is to be noted that the specific affinity was evaluated to be none when the intensity was 10 μM or more.

[3] = tested on: cell (Vero, T24 or A549 of Example 9; not given); experiment: Nucleic acid-introducing ability, luciferase-expressing plasmid (procedure of Example 9); format: cell-based; details: for ability of introducing the nucleic acid into a cell: procedure of Example 9, luciferase-expressing plasmid; for Nucleic acid-introducing ability: class of fluorescent count per 1 mg of protein per 1 second, highest of peptide 1.25, 2.5, 5 μM, plasmid 1 μg/mL
Text: A cell line established from monkey kidney (Vero cell) and a human bladder cancer cell (T24 cell) purchased from American Type Culture Collection (ATCC) and human lung cancer cell (A549 cell) purchased from Dainippon Pharmaceutical were inoculated on a 24 well culture plate (manufactured by NALGEN NUNC) at 1×10^5 cells/well. Vero cell and A549 cell were cultivated in DMEM (manufactured by Life Technologies Oriental) supplemented with 10% fetal bovine serum (hereinafter referred to as FBS, manufactured by NICHIREI), and T24 cell was cultivated in McCoy's 5a (manufactured by Life Technologies Oriental) supplemented with 10% FBS in 5% CO2 atmosphere at 37° C. for 24 hours. After removing the medium, opti-MEM (manufactured by Life Technologies Oriental) prepared to have the concentration of the luciferase-expressing plasmid prepared in Example 7 of 1 μg/mL and the concentration of the peptide prepared in Example 1 of 1.25, 2.5, or 5 μM was added, and the cells were cultivated for 5 hours. Next, in the case of Vero cell and A549 cell, the culture medium was replaced with DMEM supplemented with 10% FBS, and in the case of T24 cell, the medium was replaced with McCoy's 5a supplemented with 10% FBS, and cultivation was continued in 5% CO2 atmosphere and at 37° C. for another 24 hours. The luciferase activity expressed in the cell was then measured by the method instructed in luciferase assay system (manufactured by Promega). To be more specific, the cells were washed with phosphate-buffered saline (hereinafter referred to as PBS, manufactured by SIGMA), and the cells were lyzed with Passive Lysis Buffer attached to the kit. 20 μL of this cell lysate and 100 μL of the Luciferase Assay Reagent II attached to the kit was added to a fluorescence-measuring plate (Microlite™ 1 plate, manufactured by Dynatech), and after mixing, fluorescence was measured for 1 second by using a multilabel counter (ARVO™ SY1420 MULTILABEL COUNTER, manufactured by Wallac Beltold.
Concentration of the protein in the cell lysate was measured by mixing 8 μL of the cell lysate and 200 μL of the protein assay solution (manufactured by Biorad) with 792 μL of ultrapure water in a disposable cuvette (UV fluorescent cuvette A204X, manufactured by Funakoshi), allowing the mixture to stand for 5 minutes at room temperature, and measuring the absorption at 595 nm with a spectrophotometer (DU640, manufactured by Beckman). Bovine serum albumin (BSA) was used for the standard protein. By using the thus obtained results, count per 1 second per 1 mg of protein of the cell lysate was calculated to thereby use the count as the luciferase activity, and the highest count in the three conditions of different peptide concentration was designated the gene-introducing ability of the peptide.
It is to be noted that the nucleic acid-introducing ability was classified as described below on the bases of the fluorescent count per 1 mg of protein per 1 second (cps/mg protein).

Substance: Polylysine [reference compound]
OD 600 [1]: ≥ 1
affinity for phosphatidyl serine ([2]; procedure of Example 20): no affinity for phosphatidyl serine

Substance: SEQ ID NO:26: comparative peptide, SEQ ID NO:1 substituted so that it lacks the four sided 18 amino acid sequence (TRYLRIHPRSWVLQIALRLRYLRIHPRSWVLQIALRS; synthetic peptide using an automatic peptide synthesizer) [reference compound]
fluorescent count ([3]; procedure of Example 9): less than 10,000 cps/mg protein
ability of introducing the nucleic acid into a cell [3]: no nucleic acid-introducing ability was found

IC50 [2]: < 1000 nM
Substance: SEQ ID NO: 2: peptide of SEQ ID NO:1 with one or two locations substituted in the 18 amino acid sequence (TRYLRIHPRSWVRQIALRLRYLRIHPRSWVRQIALRS; synthetic peptide using an automatic peptide synthesizer)
OD 600 [1]: 0.01>
Nucleic acid-introducing ability [3]: 3+ (1,000,000 to less than 10,000,000)

IC50 [2]: < 1000 nM
Substance: SEQ ID NO: 3: peptide of SEQ ID NO:1 with one or two locations substituted in the 18 amino acid sequence (TRYLRIHPRSWVHQIRLRLRYLRIHPRSWVHQIRLRS; synthetic peptide using an automatic peptide synthesizer)
OD 600 [1]: 0.01>
Nucleic acid-introducing ability [3]: 2+ (100,000 to less than 1,000,000)

IC50 [2]: < 1000 nM
Substance: SEQ ID NO: 5: peptide of SEQ ID NO:1 with one or two locations substituted in the 18 amino acid sequence (TRFLRIHPRSWVHQIALRLRFLRIHPRSWVHQIALRS; synthetic peptide using an automatic peptide synthesizer)
OD 600 [1]: 0.01>
Nucleic acid-introducing ability [3]: 2+ (100,000 to less than 1,000,000)

IC50 [2]: < 1000 nM
Substance: SEQ ID NO: 6: peptide of SEQ ID NO:1 with one or two locations substituted in the 18 amino acid sequence (TRYLRIHPRSWVHNIALRLRYLRIHPRSWVHNIALRS; synthetic peptide using an automatic peptide synthesizer)
OD 600 [1]: 0.01>
Nucleic acid-introducing ability [3]: 2+ (100,000 to less than 1,000,000)

IC50 [2]: 1000 to 10000 nM
Substance: SEQ ID NO: 7: peptide of SEQ ID NO:1 with one or two locations substituted in the 18 amino acid sequence (TRYLRIHPRSWVHQIALKLKYLRIHPRSWVHQIALRS; synthetic peptide using an automatic peptide synthesizer)
OD 600 [1]: 0.01>
Nucleic acid-introducing ability [3]: 2+ (100,000 to less than 1,000,000)

Substance: SEQ ID NO: 9: peptide of SEQ ID NO:1 with one or two locations substituted in the 18 amino acid sequence (TRYLRIHPRSWVHQIALRTRYLRIHPRSWVHQIALRS; synthetic peptide using an automatic peptide synthesizer)
Nucleic acid-introducing ability [3]: 3+ (1,000,000 to less than 10,000,000)

Substance: SEQ ID NO: 12: peptide of SEQ ID NO:1 with one or two locations substituted in the 18 amino acid sequence (TRYLRIHPRSWVHQIALSLRYLRIHPRSWVHQIALSS; synthetic peptide using an automatic peptide synthesizer)
Nucleic acid-introducing ability [3]: 2+ (100,000 to less than 1,000,000)

Substance: SEQ ID NO: 13: peptide of SEQ ID NO:1 with one or two locations substituted in the 18 amino acid sequence (TRYLRIHPRSLVHQIALRLRYLRIHPRSLVHQIALRS; synthetic peptide using an automatic peptide synthesizer)
Nucleic acid-introducing ability [3]: 3+ (1,000,000 to less than 10,000,000)

Substance: SEQ ID NO: 14: peptide of SEQ ID NO:1 with one or two locations substituted in the 18 amino acid sequence (TRYLRIHPRSWSHQIALRLRYLRIHPRSWSHQIALRS; synthetic peptide using an automatic peptide synthesizer)
Nucleic acid-introducing ability [3]: 3+ (1,000,000 to less than 10,000,000)

Substance: SEQ ID NO: 18: peptide of SEQ ID NO:1 with one or two locations substituted in the 18 amino acid sequence (TRYLRIHPRSWLHQIALRTRYLRIHPRSWLHQIALRS; synthetic peptide using an automatic peptide synthesizer)
Nucleic acid-introducing ability [3]: 4+ (10,000,000 or more)

Substance: SEQ ID NO: 20: peptide of SEQ ID NO:1 with three locations substituted in the 18 amino acid sequence (TRYLRLHPRSWVHQLALRTRYLRLHPRSWVHQLALRS; synthetic peptide using an automatic peptide synthesizer)
Nucleic acid-introducing ability [3]: 4+ (10,000,000 or more)

Substance: SEQ ID NO: 21: peptide of SEQ ID NO:1 with three locations substituted in the 18 amino acid sequence (TKYLKIHPKSWVHQIALRLKYLKIHPKSWVHQIALRS; synthetic peptide using an automatic peptide synthesizer)
Nucleic acid-introducing ability [3]: 2+ (100,000 to less than 1,000,000)

Substance: SEQ ID NO: 22: peptide of SEQ ID NO:1 with three locations substituted in the 18 amino acid sequence (TRRLRIHPRRWVHRIALRLRRLRIHPRRWVHRIALRS; synthetic peptide using an automatic peptide synthesizer)
Nucleic acid-introducing ability [3]: 3+ (1,000,000 to less than 10,000,000)

Substance: SEQ ID NO: 24: deletion mutant of the peptide of SEQ ID NO:4 (TLRYLRIHPRSWLHQIALRS; synthetic peptide using an automatic peptide synthesizer)
Nucleic acid-introducing ability [3]: 1+ (10,000 to less than 100,000)
ability of introducing the nucleic acid into a cell [3]: had the ability of introducing the nucleic acid into a cell
